One compound from US12539269B2, “Composition for blocking ultraviolet rays and fine dust, and preparation method thereof” (SANG HWANG MI-IN CO., LTD, priority 2020, dated 2026) can be followed below.

The test system of the test is HaCaT. Kind of test: Hyaluronic acid production amount (ELISA kit) in BP-stimulated keratinocytes. The test is classed as cell-based. As to the method: In order to confirm whether the extract of a black hoof mushroom, a shiitake mushroom, and an oyster mushroom increased the hyaluronic acid (HA) production amount in HaCaT which is a keratinocyte, measurement was performed with an ELISA kit, and the results are shown in Table 7. In Table 7, N (normal) is a BP (benzo[α]pyrene)-unstimulated group, and C (control) is a BP (benzo[α]pyrene)-stimulated group.

SMILES strings stand for the structures.

For the compound `O=C(O[C@@H]1Cc2c(O)cc(O)cc2O[C@@H]1c1cc(O)c(O)c(O)c1)c1cc(O)c(O)c(O)c1` [EGCG], the “Increase of hyaluronic acid production versus control group (increase rate)” value (10 μg/mL, versus control C 99.3 ng/mL) turned out to be 6.3 ng/mL. Besides, for the setting “BP (benzo[α]pyrene)-stimulated, EGCG 10 μg/mL, N 198, C 99.3”, the “Hyaluronic acid production amount” value worked out at 105.6 ng/mL.
